Assay results from US20060089335A1, “Compositions and methods for enhancing cognitive function and synaptic plasticity” (priority 2003, published 2006).
Several values for one entry are separate records, joined by “and”; a condition that tells them apart may be missing. Identical values can stand only once.

Tests used:
[1] = system: cultured hippocampal neurons; test: control recordings of membrane potential, synaptic inputs and firing; type: cell-based, rat
Description: (§1) Electrophysiology. Dual whole cell perforated patch clamp recordings were made on two interconnected cultured hippocampal pyramidal neurons. Perforated patch pipettes were front-filled with a solution containing (in mM): CsOH, 127; D-gluconic acid, 127; CsCl, 4; HEPES, 10; NaCl, 8; EGTA, 0.4; pH was adjusted to 7.25 with CsOH, and then back-filled with the same solution containing […] amphotericin B (Sigma, St. Louis, Mo.). Extracellular solution contained (in mM): NaCl, 145; KCl, 3; glucose, 15; HEPES, 10; MgCl2, 0.8-1.2; CaCl2, 1.2; 0.005 glycine (Sigma), 0.05 picrotoxin (Sigma); pH adjusted to 7.4 with NaOH. MgCl2 concentration was matched to its concentration in culture medium. In experiments where effects of drugs on neuronal activity were quantified (FIG. 4D), recordings were done in culture medium (with HEPES replacing bicarbonate/CO2 to maintain pH). All experiments were performed at room temperature. For assaying synaptic connectivity, each neuron was stimulated by 1 ms step depolarization from −70 to +30 mV in voltage-clamp mode. Only neurons with monosynaptic connections were used. […] Recordings with access resistance>20 MΩ or that varied substantially were rejected from analysis.

[2] = system: NMDA receptors at single spine; test: calcium imaging and NMDA currents at single spines; type: cell-based, rat
[3] = system: excitatory and inhibitory terminals
[4] = system: cultured hippocampal neurons; test: field EPSC (fEPSC) recording before and after TBS; type: cell-based, rat
Description: as §1
To confirm that such a prominent TBS-induced increase in Pr does contribute to the enhancement of total synaptic strength, the magnitude of potentiation was tested electrophysiologically by sampling field EPSCs (fEPSCs) before and after TBS. The whole cell recording was obtained under perforated patch configuration to avoid wash-out of the intracellular components critical for synaptic plasticity. The membrane potential was clamped at −70 mV and EPSCs were evoked by field stimulation at a sampling frequency of 0.03 Hz. [Mg^2+]o during sampling was 4 mM to reduce background neural activity. The intensity of field stimulation was adjusted to produce a half maximal fEPSC amplitude. After 30 minutes of sampling were employed to determine the baseline level of synaptic strength, the bath solution was changed to 1.2 mM [Mg^2+]o and the recording configuration to current-clamp mode to allow for membrane voltage fluctuations. TBS was delivered at the same amplitude and temporal profiles as for the FM experiments.

[5] = rat, in vivo
Description: Determination of [Mg^++] in CSF. Total Mg^++ levels in CSF in control and Mg^++-treated rats were determined by a colorimetric method with xylidyl blue (Anilytics Incorporated, MD) (Thomas, L. (1998). Clinical Laboratory diagnostics. 1st ed. Francfurt: TH-Books Verlagsgesellschaft, 231-41.)
Behavior test: Novel object recognition. The subjects were 20 experimentally naive, female, Sprague-Dawley rats (Charles River), 1 year old at the beginning of the experiment. They were housed two per cage with continuous access to food and water under a 12:12 light-dark cycle, with light onset at 8:00 a.m. Rats in the Mg^++-treated group received drinking water containing 6 mg/kg/day MgCl2 for 4 months before experiments.
We noted that the extracellular concentration Mg^+ in the CSF of a normal human brain is about 1.2 mM, the same concentration at which we obtained the maximum synaptic plasticity in vitro (FIG. 8B). We tested whether increasing Mg^++ concentration might also lead to enhanced synaptic plasticity in rats in vivo. Since Mg^++ is an essential mineral, normally obtained only by ingestion, we added a low quantity of Mg^++ (˜6 mg/kg/day) to drinking water in attempt to raise CSF Mg^++ concentration. This amount was proportional to that recommended by the FDA as a daily food supplement for humans. Two groups of adult Sprague-Dawley rats (8 months) were used as experimental populations. […]

NMDAR = test: voltage-dependence of NMDAR Mg^2+ block, NMDA currents evoked by glutamate iontophoresis; type: cell-based, rat
Excerpt: Analysis of voltage-dependence of NMDAR Mg^2+ block. For studying the voltage-dependence of NMDAR Mg^2+ block, NMDA currents were evoked by local application of glutamate using the high-speed iontophoresis technique (Murnick et al., 2002). The current traces for each cell were normalized to their value at +40 mV membrane potential. The voltage dependency of NMDA currents was modeled using the Woodhull function (Woodhull, 1973). The NMDA channel conductance in the presence and absence of Mg^2+ was related according to the relationship: [formula] • where KMg is the voltage-independent affinity of Mg^2+ for the channel (0 mV membrane potential), δ is the electrical distance of the Mg^2+ binding site in the membrane field, E is membrane potential, and z is the valence of the blocking ion. RT/F was 25.4 mV (21° C.).
Although the biophysics of Mg^2+ block have been studied extensively (Mayer et al., 1984; Nowak et al., 1984; Jahr and Stevens, 1990), we wished to determine precisely the behavior of the Mg^2+ block at near-physiologic concentrations. […] We evoked NMDA currents by iontophoretic application of glutamate to a putative single bouton identified by FM 1-43 labeling and recorded under whole cell patch clamp in the presence of the AMPAR blocker, NBQX (10 μM). […] (Renger et al., 2001).

[6] = biological target: NMDA receptors (NR2B-containing) (Rattus norvegicus, UniProt P35439+Q00960); test: evoked NMDA currents ([…]), double-perforated patch; type: cell-based
Description: as §1
We hypothesized that one target may be the number and properties of NMDA receptors at individual synapses.

[7] = system: presynaptic terminals of cultured hippocampal neurons; test: TBS-induced presynaptic plasticity measured by FM 1-43 dye uptake in hippocampal cultures; type: cell-based, rat
[8] = rat, in vivo; remark: listed apart in the source

NMDA receptors (NR2B-containing), sequence (Q00960 27-1482, other chains not shown): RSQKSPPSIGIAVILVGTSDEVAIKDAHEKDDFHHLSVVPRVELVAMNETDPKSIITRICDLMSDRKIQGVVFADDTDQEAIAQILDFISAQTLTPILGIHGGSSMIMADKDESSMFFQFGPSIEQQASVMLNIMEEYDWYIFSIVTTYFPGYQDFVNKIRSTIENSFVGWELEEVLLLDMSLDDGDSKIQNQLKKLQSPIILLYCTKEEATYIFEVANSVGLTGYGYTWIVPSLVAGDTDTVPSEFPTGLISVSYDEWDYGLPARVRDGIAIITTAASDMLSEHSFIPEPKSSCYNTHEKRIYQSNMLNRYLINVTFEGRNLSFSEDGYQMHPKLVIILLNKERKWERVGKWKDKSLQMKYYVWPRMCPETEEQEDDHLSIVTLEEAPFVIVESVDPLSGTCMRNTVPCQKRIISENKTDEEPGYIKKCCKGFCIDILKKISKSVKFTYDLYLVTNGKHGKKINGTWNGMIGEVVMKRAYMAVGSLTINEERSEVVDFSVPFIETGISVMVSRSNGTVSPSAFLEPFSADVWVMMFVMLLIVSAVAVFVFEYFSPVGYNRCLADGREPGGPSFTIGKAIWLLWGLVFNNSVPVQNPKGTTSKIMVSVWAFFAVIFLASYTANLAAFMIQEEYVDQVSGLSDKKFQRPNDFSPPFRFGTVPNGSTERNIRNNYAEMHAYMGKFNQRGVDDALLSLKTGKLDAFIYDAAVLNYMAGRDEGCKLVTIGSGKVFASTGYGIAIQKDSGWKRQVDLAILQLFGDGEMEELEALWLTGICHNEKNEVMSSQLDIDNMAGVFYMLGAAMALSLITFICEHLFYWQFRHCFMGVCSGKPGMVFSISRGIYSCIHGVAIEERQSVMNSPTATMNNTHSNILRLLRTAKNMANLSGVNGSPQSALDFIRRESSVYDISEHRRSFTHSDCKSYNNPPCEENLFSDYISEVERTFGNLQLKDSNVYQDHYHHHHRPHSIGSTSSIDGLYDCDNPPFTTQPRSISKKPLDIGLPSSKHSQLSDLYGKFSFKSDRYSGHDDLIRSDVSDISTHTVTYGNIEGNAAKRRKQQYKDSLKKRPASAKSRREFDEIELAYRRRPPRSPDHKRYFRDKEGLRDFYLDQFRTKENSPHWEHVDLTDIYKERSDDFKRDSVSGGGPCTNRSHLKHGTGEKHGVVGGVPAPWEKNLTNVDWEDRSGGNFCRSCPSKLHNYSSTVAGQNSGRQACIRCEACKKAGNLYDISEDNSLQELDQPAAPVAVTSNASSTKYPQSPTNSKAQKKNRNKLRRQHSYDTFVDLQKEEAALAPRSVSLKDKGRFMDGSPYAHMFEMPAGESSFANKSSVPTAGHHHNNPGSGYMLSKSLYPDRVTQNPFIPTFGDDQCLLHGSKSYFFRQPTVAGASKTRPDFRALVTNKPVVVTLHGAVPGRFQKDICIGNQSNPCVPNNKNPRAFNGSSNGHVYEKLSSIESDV

[Mg+2] [Mg^++]
EPSC1.2/EPSC0.8, overall synaptic inputs during network activity [1]: 1.03±0.1
EPSP1.2/EPSP0.8, spontaneous miniature EPSPAMPAs [1]: 0.9±0.1
change in average firing rates of neurons within cultured neural networks [1]: none of these treatments induces a significant change
reduction of Ca^2+ influx (ΔF/F) [2]: 57±5% and 54±7%
reduction of NMDA currents (EPSCNMDA amplitude) [2]: 54±7% and 57±5%
increase of synaptic density [3]: ~30%
neuronal density and morphology [3]: normal neuronal density and morphology
TBS-induced increase in fEPSC amplitude [4]: 2.7 fold
duration of fEPSC increase [4]: at least 1.5 hours
fEPSC2/fEPSC1 [4]: 2.7±0.6
increase of synaptic strength after TBS induction, average [4]: 2.7 fold
time to maximum of fEPSC increase after TBS [4]: ~10 min
increase in CSF [Mg] [5]: approximately 0.13 mM
effect on NMDA current (NMDAR): had no effect
reduction (attenuation) of NMDA current (NMDAR): ~60%
reduction of EPSCNMDA amplitude (NMDAR): 50%
size of outward EPSCNMDA (NMDAR): remained relatively unchanged
N/A ratio (GNMDA/GAMPA) [6]: increased significantly
change in EPSCNMDA decay [6]: 2 fold
ifenprodil-sensitivity of EPSCNMDA in treated versus control cultures [6]: much higher than in the controls
increase of quantal charge transfer through NMDARs (QNMDA) [6]: 2.4 fold
F2/F1 [7]: 2.3±0.1
N2/N1 [7]: 2.1±0.1
Pr increase after TBS [7]: 2.3 fold
enhancement of synaptic plasticity [7]: ~2 fold
increase in number of detectable FM puncta after TBS [7]: 2.1 fold
increase in total presynaptic strength after TBS [7]: 5.5 fold
increase in total presynaptic strength after induction [7]: 3.9 fold
increase of plasticity of presynaptic terminals (S2/S1) [7]: 2.4 fold
increase of synaptic strength at optimum concentration [7]: up to approximately five-fold
optimal concentration for plasticity (maximal potentiability) [7]: 1.2 mM
plasticity of presynaptic terminals after partial block of Ca flux [7]: significant increases of plasticity
plasticity under long term treatments [7]: retain high plasticity persistently
time for which potentiation was stable [7]: at least 1.5 hours
general status of the rats (body weight, mobility) [8]: did not observe any significant change in the general status
